Reference: US20100286145A1, “ISOPHTHALAMIDE DERIVATIVES INHIBITING BETA-SECRETASE ACTIVITY” (CoMentis, Inc., priority 2007, published 2010)
Read-outs that look alike come from different tables or passages of the source.

What was measured:
[1] = tested on: Aβ production in Chinese hamster ovary cells that over-express human APP695 with the London and Swedish mutations; experiment: Cellular Aβ IC50 determination (Aβ40 sandwich ELISA); type: cell-based; settings: Cricetulus griseus; cellular Aβ production; read-out: IC50
How it was run: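 Aβ40 in media quantified by sandwich ELISA, normalized to control incubations and fitted with a 4-parameter IC50 model. Compounds dosed to a final concentration near 4 μM (0.4% DMSO) on CHO cells expressing human APP695 (London and Swedish mutants) seeded at 10% confluency.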

memapsin 2 = memapsin 2 (Homo sapiens, UniProt P56817); experiment: Inhibition of memapsin 2 beta-secretase activity (fluorogenic substrate FS-2); type: biochemical; settings: memapsin 2, pH 4, 37° C., read-out: M2Ki
memapsin 2, sequence (P56817 46-501): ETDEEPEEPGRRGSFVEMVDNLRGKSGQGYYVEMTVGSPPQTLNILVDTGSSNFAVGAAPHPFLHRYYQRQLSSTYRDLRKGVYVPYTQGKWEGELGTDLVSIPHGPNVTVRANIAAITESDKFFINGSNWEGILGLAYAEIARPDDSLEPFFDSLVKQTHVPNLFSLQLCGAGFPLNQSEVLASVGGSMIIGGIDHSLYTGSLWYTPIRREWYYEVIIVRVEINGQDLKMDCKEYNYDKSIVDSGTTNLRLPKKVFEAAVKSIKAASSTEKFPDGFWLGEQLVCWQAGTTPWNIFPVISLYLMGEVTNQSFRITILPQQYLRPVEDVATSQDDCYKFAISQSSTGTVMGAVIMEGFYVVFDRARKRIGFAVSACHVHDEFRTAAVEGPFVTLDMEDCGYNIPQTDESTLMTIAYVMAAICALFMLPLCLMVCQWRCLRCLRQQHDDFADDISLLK
How it was run: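 Kinetic fluorogenic assay: hydrolysis of the MCA/DNP-labelled APP Swedish-variant peptide FS-2 monitored as fluorescence rise at 37° C, pH 4, after 20 min enzyme–compound preincubation. Relative rates fitted with a tight-binding inhibitor model.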

memapsin 1 = target: T1, memapsin 1 (Homo sapiens, UniProt Q9Y5Z0); experiment: Inhibition of memapsin 1 beta-secretase activity (substrate peptide ELDLAVEFWHDR, MALDI-TOF); type: biochemical; settings: read-out: M1Ki
T1 sequence (Q9Y5Z0 63-518): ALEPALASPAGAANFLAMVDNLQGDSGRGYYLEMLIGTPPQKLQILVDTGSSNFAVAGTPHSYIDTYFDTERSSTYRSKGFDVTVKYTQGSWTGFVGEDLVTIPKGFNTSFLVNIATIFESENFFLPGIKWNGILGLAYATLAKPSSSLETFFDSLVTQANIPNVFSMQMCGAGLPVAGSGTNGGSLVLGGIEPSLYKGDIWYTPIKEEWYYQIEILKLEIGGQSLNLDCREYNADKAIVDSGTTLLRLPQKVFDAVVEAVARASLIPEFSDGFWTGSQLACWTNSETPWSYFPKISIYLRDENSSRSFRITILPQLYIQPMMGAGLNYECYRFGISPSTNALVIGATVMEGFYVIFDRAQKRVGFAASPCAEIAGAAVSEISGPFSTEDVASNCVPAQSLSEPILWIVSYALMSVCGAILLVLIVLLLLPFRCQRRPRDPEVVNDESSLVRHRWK

cathepsin D = cathepsin D (Homo sapiens, UniProt P07339); experiment: Inhibition of cathepsin D activity (substrate peptide ELDLAVEFWHDR, MALDI-TOF); type: biochemical; settings: read-out: CDKi
cathepsin D, sequence (P07339 65-412, species assumed): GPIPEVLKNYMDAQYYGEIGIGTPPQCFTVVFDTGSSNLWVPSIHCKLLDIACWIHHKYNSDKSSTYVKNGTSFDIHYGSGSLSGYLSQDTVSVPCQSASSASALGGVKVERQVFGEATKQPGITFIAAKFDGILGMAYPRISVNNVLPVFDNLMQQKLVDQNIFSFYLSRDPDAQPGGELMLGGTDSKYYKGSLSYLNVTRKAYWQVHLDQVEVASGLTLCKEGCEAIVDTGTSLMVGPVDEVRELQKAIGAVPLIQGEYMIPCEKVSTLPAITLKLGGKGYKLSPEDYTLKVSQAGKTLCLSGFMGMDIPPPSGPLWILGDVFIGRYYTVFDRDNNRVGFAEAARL

SMILES	IC50 [1]	Ki (memapsin 2; 20 minutes pre-incubation)	Ki (memapsin 1)	Ki (cathepsin D)	Ki (memapsin 2; fluorogenic substrate FS-2)
COc1cccc(CNC[C@@H](O)[C@H](Cc2ccccc2)NC(=O)c2cc(C(N)=O)cc(C(=O)N[C@H](C)c3ccccc3)c2)c1 [Compound 91, N1-((2S,3R)-3-hydroxy-4-(3-methoxybenzylamino)-1-phenylbutan-2-yl)-N3-((R)-1-phenylethyl)benzene-1,3,5-tricarboxamide]	–	> 501 nM	< 300 nM	> 501 nM	–
Cc1csc(CN(C)C(=O)c2cc(C(=O)N[C@@H](Cc3ccccc3)[C@H](O)CNCc3cncc(C(C)C)c3)cc(-c3cccc(Cl)c3)c2)n1 [Compound 272, 3′-chloro-N3-((2S,3R)-3-hydroxy-4-((5-isopropylpyridin-3-yl)methylamino)-1-phenylbutan-2-yl)-N5-methyl-N5-((4-methylthiazol-2-yl)methyl)biphenyl-3,5-dicarboxamide]	< 1000 nM	–	–	–	< 300 nM
Cc1csc(CN(C)C(=O)c2cc(C(=O)N[C@@H](Cc3ccccc3)[C@H](O)CNCc3cccc(C(F)(F)F)c3)cc(C(C)C)c2)n1 [Compound 273, N1-((2S,3R)-3-hydroxy-1-phenyl-4-(3-(trifluoromethyl)benzylamino)butan-2-yl)-5-isopropyl-N3-methyl-N3-((4-methylthiazol-2-yl)methyl)isophthalamide]	< 1000 nM	–	–	–	< 300 nM
Cc1csc(CN(C)C(=O)c2cc(C(=O)N[C@@H](Cc3ccccc3)[C@H](O)CNCc3cncc(C(C)C)c3)cc(C(C)C)c2)n1 [Compound 274, N1-((2S,3R)-3-hydroxy-4-((5-isopropylpyridin-3-yl)methylamino)-1-phenylbutan-2-yl)-5-isopropyl-N3-methyl-N3-((4-methylthiazol-2-yl)methyl)isophthalamide]	< 1000 nM	–	–	–	< 300 nM
CC(=O)Nc1cc(CNC[C@@H](O)[C@H](Cc2ccccc2)NC(=O)c2cccc(C(=O)N(C)Cc3nc(C)cs3)c2)cc(C(F)(F)F)c1 [Compound 276, N1-((2S,3R)-4-(3-acetamido-5-(trifluoromethyl)benzylamino)-3-hydroxy-1-phenylbutan-2-yl)-N3-methyl-N3-((4-methylthiazol-2-yl)methyl)isophthalamide]	< 1000 nM	–	–	–	< 300 nM
Cc1csc(CN(C)C(=O)c2cc(C(=O)N[C@@H](Cc3ccccc3)[C@H](O)CNCc3cncc(C(C)(C)F)c3)cc(C(C)C)c2)n1 [Compound 277, N1-((2S,3R)-4-((5-(2-fluoropropan-2-yl)pyridin-3-yl)methylamino)-3-hydroxy-1-phenylbutan-2-yl)-5-isopropyl-N3-methyl-N3-((4-methylthiazol-2-yl)methyl)isophthalamide]	< 1000 nM	–	–	–	< 300 nM
CC(C)c1cncc(CNC[C@@H](O)[C@H](Cc2ccccc2)NC(=O)c2cccc(C(=O)N(C)Cc3nc(CF)cs3)c2)c1 [Compound 278, N1-((4-(fluoromethyl)thiazol-2-yl)methyl)-N3-((2S,3R)-3-hydroxy-4-((5-isopropylpyridin-3-yl)methylamino)-1-phenylbutan-2-yl)-N1-methylisophthalamide]	< 1000 nM	–	–	–	< 300 nM
CO/C=C(/C)c1cncc(CNC[C@@H](O)[C@H](Cc2ccccc2)NC(=O)c2cccc(C(=O)N(C)Cc3nc(C)cs3)c2)c1 [Compound 279, N1-((2S,3R)-3-hydroxy-4-((5-((Z)-1-methoxyprop-1-en-2-yl)pyridin-3-yl)methylamino)-1-phenylbutan-2-yl)-N3-methyl-N3-((4-methylthiazol-2-yl)methyl)isophthalamide]	< 1000 nM	–	–	–	301 to 500 nM
CN(Cc1nc(CF)cs1)C(=O)c1cccc(C(=O)N[C@@H](Cc2ccccc2)[C@H](O)CNCc2cncc(C(F)(F)F)c2)c1 [Compound 280, N1-((4-(fluoromethyl)thiazol-2-yl)methyl)-N3-((2S,3R)-3-hydroxy-1-phenyl-4-((5-(trifluoromethyl)pyridin-3-yl)methylamino)butan-2-yl)-N1-methylisophthalamide]	< 1000 nM	–	–	–	< 300 nM
Cc1csc(CN(C)C(=O)c2cc(C(=O)N[C@@H](Cc3ccccc3)[C@H](O)CNCc3cncc(C(C)(C)F)c3)cc(C(F)F)c2)n1 [Compound 293, 5-(difluoromethyl)-N1-((2S,3R)-4-((5-(2-fluoropropan-2-yl)pyridin-3-yl)methylamino)-3-hydroxy-1-phenylbutan-2-yl)-N3-methyl-N3-((4-methylthiazol-2-yl)methyl)isophthalamide]	< 1000 nM	–	–	–	< 300 nM
COC1(OC)CCN(c2cc(C(=O)N[C@@H](Cc3ccccc3)[C@H](O)CNCc3cncc(C(C)C)c3)cc(C(=O)N(C)Cc3nc(C)cs3)c2)C1 [Compound 299, 5-(3,3-dimethoxypyrrolidin-1-yl)-N1-((2S,3R)-3-hydroxy-4-((5-isopropylpyridin-3-yl)methylamino)-1-phenylbutan-2-yl)-N3-methyl-N3-((4-methylthiazol-2-yl)methyl)isophthalamide]	< 1000 nM	–	–	–	< 300 nM

Other lines, results leading:

IC50 [1]	Ki (memapsin 2; 20 minutes pre-incubation)	Ki (memapsin 1)	Ki (cathepsin D)	Ki (memapsin 2; fluorogenic substrate FS-2)	SMILES
< 1000 nM	< 300 nM	301 to 500 nM	< 300 nM	–	COc1cccc(CNC[C@@H](O)[C@H](Cc2ccccc2)NC(=O)c2cc(OC)cc(C(=O)N(C)Cc3nc(C)cs3)c2)c1 [Compound 3, N1-((2S,3R)-3-hydroxy-4-(3-methoxybenzylamino)-1-phenylbutan-2-yl)-5-methoxy-N3-methyl-N3-((4-methylthiazol-2-yl)methyl)isophthalamide]
< 1000 nM	< 300 nM	301 to 500 nM	< 300 nM	–	COc1cc(CNC[C@@H](O)[C@H](Cc2ccccc2)NC(=O)c2cccc(C(=O)N(C)Cc3nc(C)cs3)c2)cc(OC)c1 [Compound 8, N1-((2S,3R)-4-(3,5-dimethoxybenzylamino)-3-hydroxy-1-phenylbutan-2-yl)-N3-methyl-N3-((4-methylthiazol-2-yl)methyl)isophthalamide]
< 1000 nM	< 300 nM	< 300 nM	–	–	Cc1csc(CN(C)C(=O)c2cc(C(=O)N[C@@H](Cc3ccccc3)[C@H](O)CNCc3cncc(C(C)C)c3)cc(-c3ncco3)c2)n1 [Compound 170, N1-((2S,3R)-3-hydroxy-4-((5-isopropylpyridin-3-yl)methylamino)-1-phenylbutan-2-yl)-N3-methyl-N3-((4-methylthiazol-2-yl)methyl)-5-(oxazol-2-yl)isophthalamide]
< 1000 nM	< 300 nM	< 300 nM	–	–	Cc1csc(CN(C)C(=O)c2cccc(C(=O)N[C@@H](Cc3cc(F)cc(F)c3)[C@H](O)CNCc3cncc(C(C)C)c3)c2)n1 [Compound 208, N1-((2S,3R)-1-(3,5-difluorophenyl)-3-hydroxy-4-((5-isopropylpyridin-3-yl)methylamino)butan-2-yl)-N3-methyl-N3-((4-methylthiazol-2-yl)methyl)isophthalamide]
< 1000 nM	–	< 300 nM	–	< 300 nM	Cc1csc(CN(C)C(=O)c2cc(C(=O)N[C@@H](Cc3ccccc3)[C@H](O)CNCc3cncc(C(C)C)c3)cc(-c3cnco3)c2)n1 [Compound 218, N1-((2S,3R)-3-hydroxy-4-((5-isopropylpyridin-3-yl)methylamino)-1-phenylbutan-2-yl)-N3-methyl-N3-((4-methylthiazol-2-yl)methyl)-5-(oxazol-5-yl)isophthalamide]
< 1000 nM	–	< 300 nM	–	< 300 nM	Cc1csc(CN(C)C(=O)c2cc(C(=O)N[C@@H](Cc3ccccc3)[C@H](O)CNCc3cncc(C(C)(C)F)c3)cc(N(C)C)c2)n1 [Compound 220, 5-(dimethylamino)-N1-((2S,3R)-4-((5-(2-fluoropropan-2-yl)pyridin-3-yl)methylamino)-3-hydroxy-1-phenylbutan-2-yl)-N3-methyl-N3-((4-methylthiazol-2-yl)methyl)isophthalamide]
< 1000 nM	–	301 to 500 nM	–	< 300 nM	Cc1csc(CN(C)C(=O)c2cccc(C(=O)N[C@@H](Cc3ccccc3)[C@H](O)CNCc3cc(CS(C)(=O)=O)cc(C(C)C)c3)c2)n1 [Compound 228, N1-((2S,3R)-3-hydroxy-4-(3-isopropyl-5-(methylsulfonylmethyl)benzylamino)-1-phenylbutan-2-yl)-N3-methyl-N3-((4-methylthiazol-2-yl)methyl)isophthalamide]
< 1000 nM	–	–	–	< 300 nM	Cc1csc(CN(C)C(=O)c2cc(C(=O)N[C@@H](Cc3ccccc3)[C@H](O)CNCc3cncc(C(C)C)c3)cc(-c3nccn3C)c2)n1 [Compound 271, N1-((2S,3R)-3-hydroxy-4-((5-isopropylpyridin-3-yl)methylamino)-1-phenylbutan-2-yl)-N3-methyl-5-(1-methyl-1H-imidazol-2-yl)-N3-((4-methylthiazol-2-yl)methyl)isophthalamide]
